Where “and” joins values, the source holds several entries; their conditions need not be identical. Equal values may be shown once.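 Five compound concentrations were applied to cells in 96-well plates for 48 hours; endpoints were derived by simple linear interpolation of the resulting dose-response curve. GI50 is the concentration that inhibits growth by half. Definition used: TGI = concentration required for complete inhibition of growth.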
Tests used:
Assay in all cases: NCI anticancer screen, dose series, 48 h
SNB-75 CNS = system: SNB-75 CNS
PC-3 prostate = system: PC-3 prostate
SF-539 CNS = system: SF-539 CNS
NCI-H460 lung = system: NCI-H460 lung
MOLT-4 leukemia = system: MOLT-4 leukemia
MCF7 breast = system: MCF7 breast
OVCAR-4 ovarian = system: OVCAR-4 ovarian
OVCAR-3 ovarian = system: OVCAR-3 ovarian
CCRF-CEM leukemia = system: CCRF-CEM leukemia
M14 melanoma = system: M14 melanoma

Structure (SMILES)	TGI (SNB-75 CNS) [µM]	TGI (PC-3 prostate) [µM]	TGI (SF-539 CNS)	TGI (NCI-H460 lung) [µM]	TGI (MOLT-4 leukemia) [µM]	TGI (MCF7 breast) [µM]	TGI (OVCAR-4 ovarian) [µM]	TGI (OVCAR-3 ovarian) [µM]	TGI (CCRF-CEM leukemia) [µM]	TGI (M14 melanoma) [µM]	GI50 (SNB-75 CNS)	GI50 (PC-3 prostate) [µM]	GI50 (SF-539 CNS)	GI50 (NCI-H460 lung) [µM]	GI50 (MOLT-4 leukemia)	GI50 (MCF7 breast) [µM]	GI50 (OVCAR-4 ovarian) [µM]	GI50 (OVCAR-3 ovarian)	GI50 (CCRF-CEM leukemia)	GI50 (M14 melanoma)
COc1cc2c(cc1O)-c1c(cnn1-c1ccc([N+](=O)[O-])cc1)CCC2	> 100	58.7	33.4 µM	> 100	6.2	> 100	> 100	55.2	30.6	49.6	–	–	–	–	–	–	–	–	–	–
CS(=O)(=O)OCC1OC(n2ccc(NC(=O)c3ccccc3)nc2=O)CC1OS(C)(=O)=O (centres undefined)	> 100	> 100	> 100 µM	> 100	> 100	> 100	> 100	> 100	> 100	> 100	–	–	–	–	–	–	–	–	–	–
Cc1cc2cc3cc(C)c(N(C)C)cc3[n+](C)c2cc1N(C)C	31.4	33.8	12.1 µM	11	> 100	> 100	34.2	14	> 100	19.8	3.7 µM	2.46	3.05 µM	2.65	3.58 µM	2.38	2.83	3.13 µM	12.2 µM	4.68 µM
N=C(N)c1ccc(OCCOCCOc2ccc(C(=N)N)cc2)cc1	> 100	> 100	> 100 µM	> 100	> 100	> 100	> 100	> 100	> 100	> 100	> 100 µM	> 100	35.3 µM	44.2	> 100 µM	89.1	> 100	> 100 µM	1 µM	> 100 µM
CCCCOc1ccc(NC(=O)n2nc(N)c3ccccc32)cc1	82.4	54.1	35.7 µM	31.2	34.8	32.3	> 100	42.2	4.68	42.2	29.6 µM	13.9	17.2 µM	13	0.921 µM	5.62	26.6	19 µM	0.0755 µM	17.7 µM
Oc1ccc(CN2CCC(N3CCOCC3)CC2)c2cccnc12	> 100	> 100	> 100 µM	> 100	> 100	76.8	> 100	> 100	> 100	> 100	11.9 µM	46.2	24.2 µM	46.9	30.9 µM	22.7	22.9	31.5 µM	23.8 µM	26.9 µM
Clc1cc2c(cc1Cl)Oc1cc(Cl)c(Cl)cc1O2	> 0.625	> 0.625	> 0.625 µM	> 0.625	> 0.625	> 0.625	> 0.625	> 0.625	> 0.625	> 0.625	0.304 µM	> 0.625	> 0.625 µM	> 0.625	> 0.625 µM	> 0.625	> 0.625	> 0.625 µM	> 0.625 µM	> 0.625 µM
O=c1ccc(N=Nc2ccc([N+](=O)[O-])cc2)ccc1O	> 100	> 100	> 100 µM	> 100	> 100	> 100	> 100	25.8	> 100	> 100	10.8 µM	5.15	4.38 µM	3.48	4.08 µM	4	5.17	3.33 µM	3.68 µM	7.19 µM
Cc1cc(Cl)cc2c(N=Nc3ccccc3[N+](=O)[O-])c(O)[nH]c12	> 100	> 100	> 100 µM	> 100	> 100	> 100	> 100	> 100	> 100	> 100	–	–	–	–	–	–	–	–	–	–
Cn1cc(C2=C(c3cccc(N)c3)C(=O)NC2=O)c2ccccc21	> 25	> 25	> 25 µM	> 25	> 25	> 25	> 25	> 25	> 25	> 25	0.0779 µM	14.8	4.07 µM	13.6	14.1 µM	4.19	> 25	5.67 µM	11.2 µM	> 25 µM
O=[N+]([O-])c1ccccc1N=Nc1c(O)[nH]c2ccc(Br)cc12	36.1	33.3	> 100 µM	25	> 78.5	59.9	> 59	35.4	31.9	44.7	–	–	–	–	–	–	–	–	–	–
CC/C(=C(/c1ccc(OCCN(C)C)cc1)c1ccc(OC(=O)CCC(=O)c2c(C)[nH]c(/C=C3\N=C(c4ccc[nH]4)C=C3OC)c2C)cc1)c1ccccc1	9.86	17.1	9.26 µM	14.1	4.25	2.66	14.8	10.3	6.34	4.92	2.45 µM	1.78	2.59 µM	3.48	0.974 µM	< 0.0217	1.49	2.08 µM	0.435 µM	2.06 µM
Cc1ccc2c(c1)c1nc3cc(C)c(C)cc3nc1n2CCN(C)C	6.41	6.82	6.13 µM	9.25	16.3	9.7	19.6	6.59	10.6	3.92	1.5 µM	2.32	2.15 µM	2.69	1.73 µM	2.91	3.43	2.37 µM	2.05 µM	1.78 µM
Cn1cc(C2=C(c3cn(CCO)c4ccccc34)C(=O)NC2=O)c2ccccc21	6.5	> 25	8.9 µM	> 25	16.8	> 25	> 25	14	> 20	> 25	0.634 µM	4.59	1.4 µM	2.06	1.36 µM	1.24	7.83	1.78 µM	1.37 µM	2.12 µM
CN(Cc1ccc(Cl)cc1)c1ccc(CO)c(Cl)c1	26.4	31	28.8 µM	11.1	66.2	12.5	14	13.2	> 66.3	22.3	7.06 µM	12.8	14 µM	1.35	18 µM	1.34	2.27	3.74 µM	15.1 µM	8.33 µM
O=C(Nc1ccc(F)cc1)Nc1ccccc1CNc1nc(Nc2ccc(OCCN3CCCC3)cc2)ncc1Cl	1.35	6.19	1.57 µM	2.7	4.74	4.75	2.93	2.01	5.93	2	0.677 µM	1.67	0.831 µM	1.15	1.53 µM	1.37	1.11	1.01 µM	1.6 µM	0.946 µM
CCOc1ccc(-c2cnnn2-c2nonc2-n2cccc2)cc1	0.527	> 100	3.77 µM	> 33.4	31.7	> 100	> 100	0.65	> 100	0.365	0.138 µM	0.365	0.319 µM	0.345	0.51 µM	0.283	0.655	0.233 µM	0.296 µM	0.122 µM
N#Cc1ncc(-c2ccc(C(F)(F)F)cc2)c(NCc2cc(C(F)(F)F)cc(C(F)(F)F)c2)n1	68.8	8.48	> 100 µM	10.2	9.79	> 100	> 100	22.7	49.8	> 100	3.19 µM	2.42	8.5 µM	3.02	3.17 µM	2.74	3.33	3.8 µM	2.26 µM	5.19 µM
COc1cccc(C2C3=C(COC3=O)N(CCO)c3cc(OC)ccc32)c1 (centres undefined)	> 100	> 100	–	–	> 100	> 100	> 100	0.166	> 100	> 100	0.0671 µM	0.0898	0.0878 µM	0.0906	0.44 µM	0.0348	0.153	0.0347 µM	0.204 µM	0.156 µM
O=C(Nc1ccccc1)c1nn(-c2cc(S(=O)(=O)O)c([N+](=O)[O-])cc2Cl)[n+](-c2cc(S(=O)(=O)[O-])c([N+](=O)[O-])cc2Cl)n1	> 100	> 100	> 100 µM	> 100	> 100	> 100	> 100	> 100	> 100	> 100	–	–	–	–	–	–	–	–	–	–
CC(=O)N1N=C(c2ccc(Nc3nc(Nc4ccc(Cl)cc4)nc(Nc4ccc(Cl)cc4)n3)cc2)CC1c1ccc([N+](=O)[O-])cc1 (centres undefined)	> 54.6	> 69.4	25.5 µM	12.5	8.35	10.4	> 100	25.6	> 32.2	43.4	3.71 µM	2.92	6 µM	2.75	1.92 µM	1.71	3.85	5.93 µM	2.92 µM	6.8 µM
O=S(=O)(Cc1ccc(Cl)cc1Cl)c1ccc(Cl)cc1	> 27.5	> 100	3.72 µM	30	> 100	> 100	> 100	1.8	> 100	48.2	0.732 µM	1.28	0.47 µM	0.401	1.14 µM	0.341	5.73	0.346 µM	0.505 µM	0.5 µM
CC(=O)O[C@@]12CO[C@@H]1C[C@H](O)[C@@]1(C)C(=O)[C@H](O)C3=C(C)[C@@H](OC(=O)[C@H](O)[C@@H](NC(=O)OC(C)(C)C)c4ccccc4)C[C@@](O)([C@@H](OC(=O)c4ccccc4)[C@H]21)C3(C)C	0.0637	> 100	0.0612 µM and 0.0251 µM	41	50.1	78.4	76.1	0.0244	> 73.6	0.281	0.0187 µM and 0.0127 µM	–	0.00666 µM and 0.0056 µM	0.000351	0.0337 µM and 0.00877 µM	–	–	0.0296 µM and 0.00642 µM	0.0286 µM and 0.0159 µM	0.0154 µM and 0.0205 µM
COc1cc2c3c(n(CCCN(CCN)CCCn4c5c(c6cc(OC)c(OC)cc6c4=O)C(=O)c4cc6c(cc4-5)OCO6)c(=O)c2cc1OC)-c1cc2c(cc1C3=O)OCO2	> 100	> 45.2	0.731 µM	13.6	–	> 36	> 83.8	20.7	0.407	18.3	2.54 µM	2.57	0.238 µM	0.469	0.0846 µM	0.376	13.3	4.34 µM	0.116 µM	0.752 µM
COC(=O)C1=C(C)NC(C)=C(C(=O)OC)C1/C=C(\Cl)c1ccc(Cl)c(Cl)c1	22.9	23.1	33 µM	23.4	27.6	33.5	26.6	26.3	31.6	30.2	8.25 µM	10.8	17.1 µM	6.48	3.69 µM	11.4	10.8	12.8 µM	5.55 µM	16.6 µM
O=c1c2c3c(sc2n2c(-c4cc(-c5ccccc5)no4)nnc2n1Cc1ccccc1)CCCC3	> 100	> 100	72.2 µM	36.8	32.7	> 76.3	> 100	30.5	> 37.7	> 100	11.2 µM	9.19	19.2 µM	12.6	3.72 µM	16.3	19.2	8.61 µM	3.22 µM	27.2 µM

— PubChem BioAssay (NCI)
